Experimental findings from patent US4738954A, “Novel N^6 -substituted-5'-oxidized adenosine analogs” (Warner-Lambert Company, priority 1985, dated 1988) are described below.

Each structure is given as a SMILES string.

Data set [1] has as its target T1, adenosine A2 receptor (Rattus norvegicus, UniProt P30543).
T1 construct: Brains were thawed and then kept on ice while the striata were dissected out; tissue Pel-Freez (Rogers, Arkansas) (rat brains); host or cells: rat striatum, membranes
The experiment in a line: Adenosine Receptor Binding--A2 Receptor Affinity (RBA2), [3H]NECA displacement. Particulars: 4 nM [3H]NECA + 50 nM N6-cyclopentyladenosine, rat striatum, 25° C, 60 min; read-out: RBA-2 (IC50, A2 receptor affinity). It counts as rat (Sprague-Dawley striatal membranes). As for the experimental part: Adenosine Receptor Binding--A2 Receptor Affinity (RBA2)
Brains from 200-500 g mixed sex Sprague-Dawley rats were purchased from Pel-Freez (Rogers, Arkansas). Fresh brains from male Long-Evans hooded rats (Blue Spruce Farms, Altamont, NY) gave essentially identical results. Brains were thawed and then kept on ice while the striata were dissected out. Striata were disrupted in 10 vol of ice-cold 50 mM Tris.HCl (pH 7.7 at 25° C., pH 8.26 at 5° C.) (Tris) for 30 seconds in a Polytron PT-10 (Brinkmann) at setting 5. The suspension was centrifuged at 50,000×g for ten minutes, the supernatant discarded, the pellet resuspended in 10 vol ice-cold Tris as above, recentrifuged, resuspended at 1 g/5 ml, and stored in plastic vials at -70° C. (stable for at least six months). When needed, tissue was thawed at room temperature, disrupted in a Polytron, and kept on ice until used.
All incubations were for 60 minutes at 25° C. in 12×75 mm glass tubes containing 1 ml Tris with 5 mg original tissue weight of rat weight of rat striatal membranes, 4 nM [^3 H]-N-ethyl adenosine-5'-carboxamide ([^3 H]NECA), 50 nM N^6 -cyclopentyladenosine (to eliminate A1 receptor binding), 10 mM MgCl2, 0.1 units/ml of adenosine deaminase and 1% dimethylsulfoxide. N^6 -Cyclopentyladenosine was dissolved at 10 mM in 0.02N HCl and diluted in Tris. Stock solutions and dilutions of N^6 -cyclopentyladenosine could be stored at -20° C. for several months. Test compounds were dissolved at 10 mM in dimethylsulfoxide on the same day as the experiment, and diluted in dimethylsulfoxide to 100× the final incubation concentration. Control incubations received an equal volume (10 μl) of dimethylsulfoxide; the resulting concentration of dimethylsulfoxide had no effect on binding. [^3 H]NECA was diluted to 40 nM in Tris. The membrane suspension (5 mg/0.79 ml) contained sufficient MgCl2 and adenosine deaminase to give 10 mM and 0.1 units/ml, respectively, final concentration in the incubation. […] After all additions, the rack of tubes was vortexed, and the tubes were then incubated for 60 min at 25° C. in a shaking water bath. The rack of tubes was vortexed an additional time halfway through the incubation.
Incubations were terminated by filtration through 2.4 cm GF/B filters under reduced pressure. Each tube was filtered as follows: the contents of the tube were poured on the filter, 4 ml of ice-cold Tris were added to the tube and the contents poured onto the filter, and the filter was washed twice with 4 ml of ice-cold Tris. The filtration was complete in about twelve seconds. Filters were put in scintillation vials, 8 ml of Formula 947 scintillation fluid added, and the vials left overnight, shaken, and counted in a liquid scintillation counter at 40% efficiency.
Nonspecific binding was defined as binding in the presence of 100 μM N^6 -cyclopentyladenosine, and specific binding was defined as total binding minus nonspecific binding. The IC50 was calculated by weighted nonlinear least squares curve-fitting to the mass-action equation. [formula] where Y is cpm bound
T is cpm total binding without drug
S is cpm specific binding without drug
D is the concentration of drug and
K is the IC50 of the drug
Weighting factors were calculated under the assumption that the standard deviation was proportional to the predicted value of Y. Nonspecific binding was treated as a very large (infinite) concentration of drug in the computer analysis.

Data set [2] deals with mice falling off the inverted screen. The experiment in a line: Mouse Activity and Screen Test Procedure (MAST): screen test. It is filed as in vivo, Swiss-Webster male mice. From the text: The compounds of the invention are new chemical substances which are useful as pharmaceutical agents for the treatment of psychoses. The antipsychotic activity of representative compounds of the invention was established by the Mouse Activity and Screen Test Procedure (MAST) described below. Animals Nine unfasted Swiss-Webster male mice weighing 20-30 g are equally divided into three groups for each drug dose to be tested. That is, data for each dose level was generated by three separate groups of three mice each. Drugs A minimum of three dose levels (10, 30, and 100 mg/kg) are tested for each drug. Treatments are administered intraperitoneally one hour prior to testing. All dosages are calculated as parent compound and given in volumes of 10 ml/kg. Compounds are dissolved or suspended in 0.2% Methocel. Control animals are injected with Methocel. Testing: A two part testing procedure is started one hour postinjection. First, the screen test (ST) is performed (see Pharmac. Biochem. Behav. 6, 351-353, 1977). Briefly this test consists of placing mice on individual wire screens which are then rotated 180 degrees at the start of a 60 second observation period. The number of mice falling off the inverted screen is recorded. Data: The data obtained from the screen test are expressed as percent of mice falling off the screen. Data derived from locomotor activity of drug treated mice are compared to the activity of vehicle treated animals and are expressed as percent inhibition of spontaneous locomotion. All percentages reported for inhibition of locomotion (LI) are based upon data accumulated for one hour. Both phases of testing are graded: A=60-100%; C=31-59%; and N=0-30%. An overall dose rating is obtained by the following criteria: LAD refers to the lowest dose at which an A rating is achieved. […] Utilizing this procedure, an overall dose rating of A was obtained for the noted compound at the indicated dose. The compounds are identified in the Examples.

T1 sequence (P30543 whole entry): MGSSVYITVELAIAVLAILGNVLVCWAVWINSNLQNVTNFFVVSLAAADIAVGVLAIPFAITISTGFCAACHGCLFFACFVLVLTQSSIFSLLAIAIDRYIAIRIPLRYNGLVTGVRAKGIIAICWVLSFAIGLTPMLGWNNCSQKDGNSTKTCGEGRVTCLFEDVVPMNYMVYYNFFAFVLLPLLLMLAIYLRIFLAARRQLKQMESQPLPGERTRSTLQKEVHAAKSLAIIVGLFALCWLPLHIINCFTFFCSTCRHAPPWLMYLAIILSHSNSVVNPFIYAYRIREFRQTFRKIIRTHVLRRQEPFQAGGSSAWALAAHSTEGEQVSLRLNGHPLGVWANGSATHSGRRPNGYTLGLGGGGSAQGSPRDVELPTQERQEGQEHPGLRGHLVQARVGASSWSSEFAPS

The IC50 is the point on the concentration scale where inhibition reaches its midpoint. For `CCOC(=O)[C@H]1O[C@@H](n2cnc3c(NCC(c4ccccc4)c4ccccc4)ncnc32)[C@H](O)[C@@H]1O` [Example 5, N6-(2,2-diphenylethyl)-5-adenosine-5'-ethylcarboxylate], the IC50 in data set [1] stood at 468 nM. Moreover, the Screen test failure in data set [2] (3 mg/kg IP) amounted to 11%; in data set [2] (10 mg/kg IP), 0%; in data set [2] (30 mg/kg IP), 0%.

`CCNC(=O)[C@H]1O[C@@H](n2cnc3c(NCC(c4ccccc4)c4ccccc4)ncnc32)[C@H](O)[C@@H]1O` [Example 3, N^6-(2,2-diphenylethyl)-adenosine-5'-ethylcarboxamide]: the half-inhibitory concentration (IC50) in data set [1] turned out to be 25 nM. Also, the Screen test failure is 0% in data set [2] (0.1 mg/kg IP); 0% in data set [2] (0.3 mg/kg IP); 0% in data set [2] (1 mg/kg IP); 0% in data set [2] (3 mg/kg IP); 11% in data set [2] (10 mg/kg IP); 33% in data set [2] (30 mg/kg IP).

Consider `CCNC(=O)[C@H]1O[C@@H](n2cnc3c(NCc4cccc5ccccc45)ncnc32)[C@H](O)[C@@H]1O` [Example 6, N-6-Naphthylmethyladenosine-5'-ethylcarboxamide], for which the IC50 in data set [1] is 8 nM. Also, the Screen test failure in data set [2] (0.03 mg/kg IP) is recorded as 0%; in data set [2] (0.1 mg/kg IP) it was 0%; in data set [2] (0.3 mg/kg IP), 0%; in data set [2] (1 mg/kg IP), 11%; in data set [2] (3 mg/kg IP) it was 11%; in data set [2] (10 mg/kg IP), 0%.

As for `CCNC(=O)[C@H]1O[C@@H](n2cnc3c(N[C@H](C)Cc4ccccc4)ncnc32)[C@H](O)[C@@H]1O` [Example 1, (R)-N-6-[(2-phenyl-1-methyl)ethyl]-adenosine-5'-ethylcarboxamide], the IC50 in data set [1] was determined as 70 nM. For the same molecule, the Screen test failure in data set [2] (0.01 mg/kg IP) worked out at 0%; in data set [2] (0.03 mg/kg IP), 0%; in data set [2] (0.1 mg/kg IP), 33%; in data set [2] (0.3 mg/kg IP), 11%; in data set [2] (1 mg/kg IP), 33%; in data set [2] (3 mg/kg IP), 88%. For the same molecule, the Screen test failure in data set [2] (10 mg/kg IP) and in data set [2] (30 mg/kg IP) was 100% throughout.

As for `CCOC(=O)[C@H]1O[C@@H](n2cnc3c(NC4CC5CCC4C5)ncnc32)[C@H](O)[C@@H]1O` (relative stereo) [Example 8, N-6-Norbornyl-adenosine-5'ethylcarboxylate], the IC50 in data set [1] was 12400 nM.
